This is an account of results in patent US10968163B2, “Alpha-truxillic acid derivatives and pharmaceutical compositions thereof” (The Research Foundation for the State University of New York, priority 2016, dated 2021).

For assay [1] the following is noted: compared with morphine; cited from earlier work.
A further assay addresses FABP3 (Homo sapiens (Human), UniProt P05413). As to the kind of experiment: DAUDA, ANS or NBD-stearate fluorescence displacement binding assay, FABP3. The conditions noted are these: average ± S.E. of at least three independent experiments.
The target of the next assay is FABP7 (Homo sapiens (Human), UniProt O15540). Nature of the assay: DAUDA, ANS or NBD-stearate fluorescence displacement binding assay, FABP7. The conditions noted are these: average ± S.E. of at least three independent experiments.
The target of assay [2] is T1, FABP5 (Homo sapiens (Human), UniProt Q01469). As to the kind of experiment: DAUDA, ANS or NBD-stearate fluorescence displacement binding assay, FABP5. The conditions noted are these: average ± S.E. of at least three independent experiments. As to the method:
FABP5 (30 μg), NBD-stearate (1 μM), and a competitor test compound were incubated in 30 mM Tris-HCl, 100 mM NaCl buffer (pH 7.6). […] The initial assay was run with buffer (30 mM Tris-HCl buffer), negative controls (buffer and NBD-stearate), positive controls (buffer, NBD-stearate, FABP5), and experimental wells with a variable test compound added (arachidonic acid or one of the 48 test compounds) at 10 μM. […] GraphPad Prism was also used to determine the Ki of these select competitors from the equation Ki=IC50/(1+([NBD-stearate]/Kd)). The Kd of NBD-stearate for FABP5 had been determined previously through incubating FABP5 with increasing concentrations of NBD-stearate.
Determination of Ki was derived from DAUDA or NBD-stearate displacement assays (see Table 1).

Assay [3] addresses T1, FABP5. The conditions noted are these: read-out: Kd of NBD-stearate for FABP5; cited from earlier work.
A further assay concerns formalin induced pain. The conditions noted are these: formalin induced mouse models; cited from earlier work.

FABP3, sequence (P05413 whole entry, species assumed): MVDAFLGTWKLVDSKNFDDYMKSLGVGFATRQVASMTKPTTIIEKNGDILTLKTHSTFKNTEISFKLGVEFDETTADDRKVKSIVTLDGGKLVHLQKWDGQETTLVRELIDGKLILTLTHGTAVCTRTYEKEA
T1 sequence (Q01469 whole entry, species assumed): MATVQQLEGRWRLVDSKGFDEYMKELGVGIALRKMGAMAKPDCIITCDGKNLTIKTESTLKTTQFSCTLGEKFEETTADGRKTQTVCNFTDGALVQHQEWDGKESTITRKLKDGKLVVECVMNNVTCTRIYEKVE
FABP7, sequence (O15540 whole entry, species assumed): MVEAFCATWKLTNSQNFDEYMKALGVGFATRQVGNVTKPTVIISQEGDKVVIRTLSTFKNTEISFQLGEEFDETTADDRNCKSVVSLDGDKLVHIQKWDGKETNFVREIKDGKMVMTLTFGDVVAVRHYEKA

For `COc1cc([C@H]2[C@H](C(=O)O[C@@H]3C[C@@H]4[C@@H](CN(C)C[C@@H]4C)[C@@H]3C)[C@H](c3ccc(O)c(OC)c3)[C@H]2C(=O)O[C@@H]2C[C@@H]3[C@@H](CN(C)C[C@@H]3C)[C@@H]2C)ccc1O` [(−)-incarvillateine], in assay [1], the antinociceptive properties entry is recorded as “antinociceptive properties on the same level as morphine”.

Consider `O=C(O)[C@H]1[C@@H](c2ccccc2)[C@H](C(=O)OCc2ccccc2)[C@@H]1c1ccccc1` [Compound 3a, Benzyl α-2,4-diphenylcyclobutane-1,3-dicarboxylate], for which the Ki at FABP3 was above 10 µM.

In the case of `COc1ccc(COC(=O)[C@H]2[C@@H](c3ccccc3)[C@H](C(=O)O)[C@@H]2c2ccccc2)cc1` [Compound 3b, 4-Methoxybenzyl α-2,4-diphenylcyclobutane-1,3-dicarboxylate], the inhibitory constant (Ki) is 1140 ± 60 nM on FABP7, 2150 ± 100 nM on FABP5 [2] and above 10 µM on FABP3.

In the case of `O=C(O)[C@H]1[C@H](c2ccccc2)[C@H](C(=O)OCc2ccc(F)cc2)[C@H]1c1ccccc1` [Compound 3c, 4-Fluorobenzyl α-2,4-diphenylcyclobutane-1,3-dicarboxylate], the Ki was 1650 ± 210 nM on FABP7, 2420 ± 180 nM on FABP5 [2] and above 10 µM at FABP3.

`O=C(O)[C@H]1[C@H](c2ccccc2)[C@H](C(=O)OCc2ccc(Br)cc2)[C@H]1c1ccccc1` [Compound 3d, 4-Bromobenzyl α-2,4-diphenylcyclobutane-1,3-dicarboxylate]: the Ki at FABP7 was 1250 ± 30 nM; at FABP5 [2] it was 1580 ± 160 nM; at FABP3 it was above 10 µM.

Turning to `O=C(O)[C@H]1[C@H](c2ccccc2)[C@H](C(=O)Oc2ccccc2I)[C@H]1c1ccccc1` [Compound 3e], the inhibitory constant (Ki) turned out to be 940 ± 340 nM on FABP7, 1340 ± 210 nM at FABP5 [2] and 1.18 ± 0.1 µM at FABP3.

`O=C(O)[C@H]1[C@H](c2ccccc2)[C@H](C(=O)Oc2cccc(-c3ccccc3)c2)[C@H]1c1ccccc1` [Compound 3h, Biphenyl-3-yl α-2,4-Diphenylcyclobutane-1,3-dicarboxylate]: the figures for the Ki on FABP7 and at FABP3 were 740 ± 170 nM and 9.75 ± 0.79 µM, respectively.

Take `O=C(O)[C@H]1[C@H](c2ccccc2)[C@H](C(=O)Oc2ccc(-c3ccccc3)cc2)[C@H]1c1ccccc1` [Compound 3i]: the figures for the Ki at FABP7, at FABP5 [2] and at FABP3 were 2270 ± 30 nM, 2520 ± 360 nM and 3.93 ± 0.16 µM, respectively.

On to `O=C(O)[C@H]1[C@H](c2ccccc2)[C@H](C(=O)Oc2ccccc2-c2ccccc2O)[C@H]1c1ccccc1` [Compound 3j, 2′-HO-biphenyl-2-yl α-2,4-diphenylcyclobutane-1,3-dicarboxylate], for which the results for the Ki at FABP7, on FABP5 [2] and at FABP3 were 540 ± 180 nM, 1590 ± 430 nM and 3.52 ± 0.53 µM, respectively.

`O=C(O)[C@H]1[C@H](c2ccccc2)[C@H](C(=O)Oc2ccc(Cl)c(Cl)c2Cl)[C@H]1c1ccccc1` [Compound 3k]: the Ki on FABP7 came to 540 ± 20 nM; on FABP3, 2.98 ± 0.85 µM.

Turning to `O=C(O)[C@H]1[C@H](c2ccccc2)[C@H](C(=O)OC2Cc3ccccc3C2)[C@H]1c1ccccc1` [Compound 3m, Indan-2-yl α-2,4-diphenylcyclobutane-1,3-dicarboxylate], the Ki on FABP7 was 2410 ± 90 nM; at FABP3, above 10 µM.

With `C#Cc1cccc2c(OC(=O)[C@H]3[C@@H](c4ccccc4)[C@H](C(=O)O)[C@@H]3c3ccccc3)cccc12` [Compound 3p, 5-Ethynylnaphth-1-yl α-2,4-diphenylcyclobutane-1,3-dicarboxylate], the Ki on FABP7 stood at 1030 ± 220 nM; at FABP5 [2] it was 3920 ± 750 nM; at FABP3, 4.94 ± 0.31 µM.

Take `O=C(O)[C@H]1[C@H](c2ccccc2)[C@H](C(=O)OCC2c3ccccc3-c3ccccc32)[C@H]1c1ccccc1` [Compound 3q, 9-Fluorenylmethyl α-2,4-diphenylcyclobutane-1,3-dicarboxylate]: the Ki on FABP7 was 2700 ± 620 nM; at FABP5 [2] it was 2560 ± 160 nM; on FABP3 it was above 10 µM.

In the case of `O=C(O)[C@H]1[C@@H](c2ccccc2)[C@H](C(=O)OCC(F)(F)F)[C@@H]1c1ccccc1` [Compound 3r, 2,2,2-Trifluoroethyl α-2,4-diphenylcyclobutane-1,3-dicarboxylate], the Ki at FABP5 [2] is above 10000 nM; at FABP3, above 10 µM.

Turning to `O=C(O)C1C(c2ccccc2)C(C(=O)OC2CCCCC2)C1c1ccccc1` (stereo not drawn) [Compound 3s, Cyclohexyl α-2,4-diphenylcyclobutane-1,3-dicarboxylate], the Ki on FABP7 is 500 ± 110 nM; on FABP3 it was above 10 µM.

In the case of `CCOCCOCCOCCn1cc(-c2cccc(OC(=O)[C@H]3[C@@H](c4ccccc4)[C@H](C(=O)O)[C@@H]3c3ccccc3)c2)nn1` [Compound 3t], the Ki is 1060 ± 70 nM at FABP7, above 10000 nM on FABP5 [2] and above 10 µM on FABP3.

For the compound `COc1cc([C@H]2[C@H](C(=O)O)[C@H](c3ccc(O)c(OC)c3)[C@H]2C(=O)Oc2cccc3ccccc23)ccc1O` [Compound 4a, 1-Naphthyl α-2,4-di(3-methoxy-4-hydroxy)cyclobutane-1,3-dicarboxylate], the Ki was 2120 ± 190 nM on FABP7, above 10000 nM on FABP5 [2] and 1.06 ± 0.19 µM at FABP3.

In the case of `O=C(O)[C@H]1[C@@H](c2ccc(O)cc2)[C@H](C(=O)Oc2cccc3ccccc23)[C@@H]1c1ccc(O)cc1` [Compound 4d], the Ki at FABP5 [2] was above 10000 nM.

For the compound `COc1ccccc1C1C(C(=O)O)C(c2ccccc2OC)C1C(=O)O[C@@H]1CCCC[C@H]1c1ccccc1` (stereo partly drawn) [Compound 4e, (1R,2S)-2-Phenylcyclohexyl α-2,4-di(2-methoxylphenyl)cyclobutane-1,3-dicarboxylate], the inhibition constant (Ki) came out at 400 ± 30 nM on FABP7 and 0.4 ± 0.08 µM at FABP3.

`O=C(O)[C@H]1[C@H](c2ccccc2Cl)[C@H](C(=O)OC2CCCC[C@H]2c2ccccc2)[C@H]1c1ccccc1Cl` (stereo partly drawn) [Compound 4f, (1R,2S)-2-Phenylcyclohexyl α-2,4-di(2-chlorophenyl)cyclobutane-1,3-dicarboxyliate]: the values for the Ki on FABP7 and at FABP3 were above 10000 nM and above 10 µM, respectively.

For `O=C(O)[C@H]1[C@H](c2c(Cl)cccc2Cl)[C@H](C(=O)OC2CCCC[C@H]2c2ccccc2)[C@H]1c1c(Cl)cccc1Cl` (stereo partly drawn) [Compound 4g, (1R,2S)-2-Phenylcyclohexyl α-2,4-di(2,6-dichlorophenyl)cyclobutane-1,3-dicarboxylate], on FABP3, the Ki was above 10 µM.

In the case of `O=C(O)C1C(c2ccccc2Br)C(C(=O)O[C@@H]2CCCC[C@H]2c2ccccc2)C1c1ccccc1Br` (stereo partly drawn) [Compound 4h, (1R,2S)-2-Phenylcyclohexyl α-2,4-di(2-bromophenyl)cyclobutane-1,3-dicarboxylate], the Ki was above 10000 nM at FABP7 and above 10 µM at FABP3.

Take `COc1ccccc1[C@H]1[C@H](C(=O)O)[C@H](c2ccccc2OC)[C@H]1C(=O)OCC1c2ccccc2-c2ccccc21` [Compound 4j, 9-Fluorenylmethyl α-2,4-di(2-methoxylphenyl)cyclobutane-1,3-dicarboxylate]: the Ki was above 10000 nM at FABP7 and above 10 µM at FABP3.

Take `O=C(O)[C@H]1[C@H](c2ccccc2Cl)[C@H](C(=O)OCC2c3ccccc3-c3ccccc32)[C@H]1c1ccccc1Cl` [Compound 4k, 9-Fluorenylmethyl α-2,4-di(2-chlorophenyl)cyclobutane-1,3-dicarboxylate]: the Ki on FABP7 is 3540 ± 770 nM; at FABP3 it was above 10 µM.

Consider `CCCCCCC(CCCCCCCCCCC(=O)O)N(C)c1ccc([N+](=O)[O-])c2nonc12` (centres unmarked) [NBD-stearate], for which the Kd on FABP5 [3] is 160 nM.

In the case of `O=C(O)C1C(c2ccccc2)C(C(=O)O)C1c1ccccc1` (stereo not drawn) [α-truxillic acid, α-2,4-diphenylcyclobutene-1,3-dicarboxylic Acid], the “antinociceptive effect in early and late stage pain” value in the assay with formalin induced pain is “best antinociceptive agent in both early and late stage pain”.
